Source: publication PMC11995078, “Protocol for high-throughput screening of SIRT7 inhibitors using fluorescent peptide technology” (STAR Protocols, 2025)

Target: T1, Sirtuin 7 (SIRT7) (Homo sapiens, UniProt Q9NRC8)
T1 construct: his-tagged full length SIRT7 (pET-28a, E. coli BL21(DE3))
T1 sequence (Q9NRC8 1-400): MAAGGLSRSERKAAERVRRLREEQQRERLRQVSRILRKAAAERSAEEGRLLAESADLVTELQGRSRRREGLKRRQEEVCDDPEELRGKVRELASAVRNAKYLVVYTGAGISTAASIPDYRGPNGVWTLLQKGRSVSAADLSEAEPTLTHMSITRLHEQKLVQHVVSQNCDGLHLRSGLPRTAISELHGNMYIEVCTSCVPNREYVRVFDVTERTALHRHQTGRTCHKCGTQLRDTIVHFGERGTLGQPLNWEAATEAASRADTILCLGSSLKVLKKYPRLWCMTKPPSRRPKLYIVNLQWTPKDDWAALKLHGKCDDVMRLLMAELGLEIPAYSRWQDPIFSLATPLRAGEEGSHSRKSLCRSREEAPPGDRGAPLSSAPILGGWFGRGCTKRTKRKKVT
Experiment: fluorescent MCA-peptide (H3K18) deacylation assay with purified SIRT7, dose-response
Type: biochemical

COC(=O)/C(=C\C(=O)c1ccc(O)c(O)c1)c1ccc(O)c(O)c1 [YZL-51N]
IC50: 12.7 µM
